From patent US20160017273A1, “SPERM SELECTION UNIT STRUCTURE, SPERM SCREENING DEVICE PROVIDED WITH SPERM SELECTION UNIT STRUCTURE, AND METHOD OF PREPARING SEMEN FOR FERTILIZATION” (NATIONAL INSTITUTE OF ADVANCED INDUSTRIAL SCIENCE AND …, priority 2013, published 2016) come the findings set out here.

In the test the test system is sperm of thawed frozen semen. Nature of the test: ratio between X sperm and Y sperm (real time PCR) in semen recovered by the sperm screening device after the sperm preservation step with a phenoxazine compound. The note with it: 25 μM brilliant cresyl blue + 5 mM glucose-6-phosphate, no electron accepting substance added, 5% CO2. The format is cell-based, Holstein cattle. The protocol:
Frozen semen of WHO OCEANIC JOVIAN ET (Holstein cattle) was thawed in accordance with the predetermined steps, 200 μl of thawed semen was sampled and was put into a tube having a capacity of 1.5 ml. Then, semen was subjected to the centrifugal separation (7 minutes, 2000 rpm), and a half of supernatant of the semen after being subjected to the centrifugal separation was thrown away and approximately 1004 of semen was left in the tube.
An approximately 100 μL of buffer solution (obtained by adding 6 mg/mL BSA+10 μg/mL of gentamycin+5 mM EGTA to the commercially available “SP-TALP” solution) is added into the tube, the buffer solution is stirred lightly and, thereafter, the buffer solution was incubated for 50 minutes at 37° with 5% CO2.
Next, the tube was subjected to the centrifugal separation again (7 minutes, 2000 rpm), and a supernatant of the solution was thrown away, and an approximately 100 μL of buffer solution (obtained by adding 6 mg/mL BSA+10 […] to the commercially available “SP-TALP” solution; not containing EGTA) was added into the tube and, thereafter, the solution was stirred lightly.
The tube was subjected to the centrifugal separation again (7 minutes, 2000 rpm), and 100 μL of a supernatant of the solution was thrown away, and an approximately 100 μL of buffer solution (obtained by adding 6 mg/mL BSA+10 μg/mL gentamycin +25 μM brilliant cresyl blue +5 mM glucose-6-phosphate to the commercially available “SP-TALP” solution) was added into the tube and, thereafter, the solution was incubated at 37° C. with 5% CO2 (sperm preservation step). […]
Thereafter, sperm having high motility were recovered by using the sperm screening device according to this embodiment. Then, with respect to the acquired semen for artificial insemination, a ratio between X sperm and Y sperm was investigated using a real time PCR method.

Where [1] appears, read: incubation 30 minutes at 37° C.
Setting [2] is: incubation 50 minutes at 37° C.

Turning to brilliant cresyl blue, the “ratio of X sperm” value is 39% under setting [1] and 35% under setting [2]. Also, the “ratio of Y sperm” value by setting is: under setting [1], 61%; under setting [2], 65%.
